The source of these data is ChEMBL document CHEMBL3244295, “A ureido group containing analogue of oxytocin comprising eight amino acid residues” (J Med Chem, 1978).

For assay [1], the target named is T1, Oxytocin-like receptor (Gallus gallus, UniProt Q5D7U5).
T1 sequence (Q5D7U5 whole entry): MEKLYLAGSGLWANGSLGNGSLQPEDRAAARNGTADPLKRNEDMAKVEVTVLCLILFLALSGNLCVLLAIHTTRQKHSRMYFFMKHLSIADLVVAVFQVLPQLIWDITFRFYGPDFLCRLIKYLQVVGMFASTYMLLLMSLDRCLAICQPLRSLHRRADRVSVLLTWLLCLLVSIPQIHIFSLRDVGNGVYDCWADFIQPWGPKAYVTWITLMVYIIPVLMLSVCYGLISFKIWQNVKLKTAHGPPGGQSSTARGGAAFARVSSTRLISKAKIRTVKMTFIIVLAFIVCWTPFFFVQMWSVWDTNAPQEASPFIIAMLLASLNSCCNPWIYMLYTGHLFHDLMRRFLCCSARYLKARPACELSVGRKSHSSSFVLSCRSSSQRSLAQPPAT
Description: Antagonist activity at oxytocin receptor in conscious chicken assessed as inhibition of oxytocin-induced vaspdepressor response. The following applies: read-out: pA2 (converted).

Assay [2] is described as follows: Uterotonic activity in virgin rat uterus relative to oxytocin. Type of assay: functional.
Assay [3] can be described thus: Uterotonic activity in virgin rat uterus. The class given is functional.
Assay [4] concerns Rattus norvegicus. Description: Antidiuretic activity in anesthetized rat assessed per mg. The class given is functional, Urine.

Each structure is given as a SMILES string. Residues, ends and D or L forms follow the SMILES beside them.

Take `CC[C@H](C)[C@@H]1NC(=O)[C@H](Cc2ccc(O)cc2)NC(=O)[C@@H](N)C(C)(C)SSC[C@@H](C(=O)N2CCC[C@H]2C(=O)N[C@@H](CC(C)C)C(=O)NCC(N)=O)NC(=O)[C@H](CC(N)=O)NC(=O)[C@H](CCC(N)=O)NC1=O`: the Kb in assay [1] was 31.6 nM.

`[H][C@@]1([C@@H](C)CC)NC(=O)[C@H](Cc2ccc(O)cc2)NC(=O)NCCCC[C@@H](C(=O)N2CCC[C@H]2C(=O)N[C@@H](CC(C)C)C(=O)NCC(N)=O)NC(=O)[C@H](CC(N)=O)NC(=O)[C@H](CCC(N)=O)NC1=O` (HELM PEPTIDE1{Y.I.Q.N.K.P.L.G.[am]}|CHEM1{[O=C([*:1])[*:2]]}$PEPTIDE1,CHEM1,1:R1-1:R1|PEPTIDE1,CHEM1,5:R3-1:R2$$$V2.0): the Kb in assay [1] was 53.7 nM. The Activity is 0.8% in assay [2], 3.9 U/mg in assay [3] and less than 0.05 U in assay [4].
